In patent US8378115B2, “Monomethine dyes” (Thermo Fisher Scientific (Milwaukee) LLC, priority 2007, dated 2013):

Legend:
[1] = test system: λDNA; assay: Fluorescence enhancement of dye with λDNA; assay type: binding; conditions: for Fluorescence relative to TO / Fluorescence λ DNA/ssDNA: 0.8 μM dye, 3.2 μM DNA, one minute; for Ratio λ DNA/ss: fluorescence λ DNA vs ss-DNA; for Relative Fluorescent Intensity: λ DNA, TO = 1.0
Description: (§1) Stock solutions (8 mM) of each dye were prepared by dissolving each compound in dimethylsulfoxide (DMSO). Stock dye solutions were diluted to a desired concentration in tris-EDTA (TE) buffer (10 mM Tris, 1 mM EDTA, pH 8.0) immediately prior to use.
(§2) Stock solutions of λDNA and 40mer synthetic oligonucleotides (dsDNA and ssDNA), each at a concentration of 40 μM, were prepared in TE buffer. All DNA concentrations described are in base pairs of nucleotides. The DNA stock solutions were diluted to a desired concentration in TE buffer before being mixed with diluted dye solutions.
(§3) Fluorescence enhancement measurements of each dye were obtained by incubating dyes with λDNA, 40mer dsDNA, or 40mer ssDNA at a final concentration of 0.8 μM dye and 3.2 μM DNA for one minute. Fluorescence scans of the samples were performed with excitation wavelengths corresponding to the absorption maxima of the dyes. The resulting fluorescence intensities were compared to fluorescence intensities of Thiazole Orange (TO) and a compound equivalent to SYBR Green without the side chain (V02-06101), shown below,
(§4) [drawing 15] binding to λDNA, 40mer dsDNA, or 40mer ssDNA at a final concentration of 0.8 μM TO and 3.2 μM DNA for one minute, the same as for the tested dyes. The discrimination ratio between dsDNA and ssDNA was calculated by comparing the fluorescence intensities.

[2] = test system: 40mer dsDNA; assay: Fluorescence enhancement of dye with 40mer dsDNA; assay type: binding; conditions: for Relative Fluorescent Intensity: 40-mer ds-DNA, TO = 1.0; for Ratio ds/ss: fluorescence 40-mer ds-DNA vs ss-DNA
Description: as §1, §2, §3, §4

[3] = Absorption spectra of dye alone; assay type: physicochemical; conditions: for ε: in M-1·cm-1 (unit assumed)
Description: as §1
[…] […] Optical densities were determined at the absorbance maxima and the extinction coefficients were calculated using Beer's law.

[4] = test system: rRNA; assay: Fluorescence of dye with rRNA; assay type: binding; conditions: for Ratio rRNA/ds: fluorescence rRNA vs 40-mer ds-DNA; for Ratio rRNA/ss: fluorescence rRNA vs 40-mer ss-DNA
[5] = test system: RNA; assay: Low range RNA quantification by fluorescence; assay type: binding; conditions: low range RNA assay
Description: Detecting and quantifying small amounts of RNA is important in many determinations such as quantitating in vitro transcription yields and quantitating RNA concentration before performing RNA containing assays. RNA is typically quantitated by determining absorbance at 260 nm (λ260), but disadvantages include protein interference, DNA absorbance, and the need for high concentration of RNA (>4 μg/ml). More sensitive fluorescence methods must be used to quantitate small amounts of RNA. A widely used RNA quantitation dye is RiboGreen® (Invitrogen), where 1 ng/ml of RNA can be detected and quantitated with a standard fluorometer, fluorescence microplate reader, or filter fluorometer.
In one embodiment, the V11-03001 compound may be used to quantitate RNA.

[6] = test system: 110 bp and 925 bp fragments from human β-actin gene, 309 bp fragment from human Survivin gene, 413 bp fragment from human integrin α5 gene; assay: qRT-PCR detection of longer PCR amplicons; assay type: biochemical; conditions: 20 ng to 60 ng dye; 110, 309, 413, 925 bp amplicons
Description: Compound V02-07027 was also used to detect the formation of longer PCR amplicons using qRT-PCR: The following by fragments were used: 110 bp and 925 bp fragments from human β-actin gene, a 309 bp fragment from human Survivin gene, and a 413 bp fragment from human integrin α5 gene. Real time PCR was performed on a Stratagene® MX3000 (Stratagene, La Jolla Calif.) instrument using an excitation wavelength of 492 nm and an emission wavelength of 516 nm. Each amplification reaction (25 μl) contained 10 ng or 100 ng of human Genomic DNA, 200 μM of each dNTP, 1.5 mM MgCl2, 50 mM KCL, 10 mM Tris-HCl, 400 nM of each of forward and reverse primers, and 2.5 units of Taq DNA polymerase (Thermo Fisher Scientific (Milwaukee Wis.)). Varying amounts of V02-07027 or a dye such as SYBR® Green (Invitrogen) were added to the reaction mix. Reactions were performed in triplicate and the data points represented the average signal.

λex ([3]; Ethanol)	ε ([3]; Ethanol)	λex ([3]; TE Buffer, 8 μM dye)	ε ([3]; TE Buffer, 8 μM dye)	Compound	Fluorescence relative to TO [1]	Fluorescence λ DNA/ssDNA [1]	Ratio λ DNA/ss [1]	Relative Fluorescent Intensity [1]	Relative Fluorescent Intensity [2]	Ratio ds/ss [2]	fluorescence enhancement among all the dyes studied ([1]; comparable to SYBR Green dye)	fluorescence enhancement when bound with RNA [4]	Ratio rRNA/ds [4]	Ratio rRNA/ss [4]	fluorescence intensities versus RiboGreen [5]	relationship between fluorescence intensity and total RNA concentration ([5]; FIG. 10)	binding to amplified DNA fragments [6]
499 nm	72,000	492 nm	35,925	CCN(CC)c1ccc2c(C=C3Oc4ccccc4N3CC)cc(C(C)(C)C)[o+]c2c1 [Dye V02-06136]	0.17	1	1	0.17	0.3	1.8							
530 nm	85,000	515 nm	46,625	CCN(CC)c1ccc2c(C=C3Sc4ccccc4N3CC)cc(C(C)(C)C)[o+]c2c1 [Dye V02-06124]	0.5	1.6	1.6	0.5	0.3	1.2							
488 nm	43,000	480 nm	18,850	CCN1C(=Cc2cc(-c3ccccc3)[o+]c3cc(OC)ccc23)Sc2ccccc21 [Dye V02-06132]	None	None											
522 nm	50,000	515 nm	37,365	CCN(CCCN(C)C)c1ccc2c(/C=C3\Sc4ccccc4N3CC)cc(C(C)(C)C)[o+]c2c1 [Dye V02-07015]	4.0	3.7	3.7	4.0	4.0	2.3							
501 nm	77,000	501 nm	52,773	CN1C(=Cc2cc[n+](C)c3ccccc23)Sc2ccccc21 [TO, Thiazole Orange, reference compound]	1	3.3	5.6	1.0	1.0	3.5			0.8	2.3			
550 nm	55,000	524 nm	19,668	CCN(CC)c1ccc2c(/C=C3\Sc4ccccc4N3CC)cc(-c3ccccc3)[o+]c2c1 [Dye V02-06187]	0.7	6.7	5.2	0.7	0.5	2.1							
477 nm	60,000	475 nm	39,987	CCN(CC)c1ccc2c(/C=C3\Sc4ccccc4N3C)cc(N(C)CCCN(C)C)[o+]c2c1 [Dye V02-07027]	3.6	2.8	2.8	3.6	5.3	2.6							bound to amplified DNA fragments, generating a fluorescent signal
585 nm	48,000	543 nm	25,013	CCN(CC)c1ccc2c(c1)O/C(=C\c1cc(N(C)CCCN(C)C)[o+]c3cc(N(CC)CC)ccc13)C=C2C [Dye V13-01026]	0.9	1.4	1.4	0.9	1.0	0.7							

The remaining lines, values behind:

Compound	λex ([3]; Ethanol)	ε ([3]; Ethanol)	λex ([3]; TE Buffer, 8 μM dye)	ε ([3]; TE Buffer, 8 μM dye)	Fluorescence relative to TO [1]	Fluorescence λ DNA/ssDNA [1]	Ratio λ DNA/ss [1]	Relative Fluorescent Intensity [1]	Relative Fluorescent Intensity [2]	Ratio ds/ss [2]	fluorescence enhancement among all the dyes studied ([1]; comparable to SYBR Green dye)	fluorescence enhancement when bound with RNA [4]	Ratio rRNA/ds [4]	Ratio rRNA/ss [4]	fluorescence intensities versus RiboGreen [5]	relationship between fluorescence intensity and total RNA concentration ([5]; FIG. 10)	binding to amplified DNA fragments [6]
CCN(CC)c1ccc2c(/C=C3\Sc4ccccc4N3C)cc(N3CC[N+](C)(CCO)CC3)[o+]c2c1 [Dye V11-03001]	490 nm	95,000	487 nm	65,269			1.8	8.7	11.1	1.7	strongest fluorescence enhancement	significant fluorescence enhancement	0.6	1.0	comparable to those using RiboGreen®	linear relationship	
CCN(CC)c1ccc2c(/C=C3\Sc4ccccc4N3C)cc(N(C)CCC[N+](C)(C)C)[o+]c2c1 [Dye V11-02190]	481 nm	25,600	477 nm	16,940			3.1	1.9	1.7	1.9			0.7	1.4			
CCN(CC)c1ccc2c(N(C)CCCN(C)C)cc(/C=C3\Sc4ccccc4N3C)[o+]c2c1 [Dye V02-07108]	498 nm	46,000	496 nm	27,418	3.1	1.8	1.9	3.1	3.5	1.4			0.8	1.1			
CCN1c2cc3[o+]c(N(C)CCCN(C)C)cc(/C=C4\Sc5ccccc5N4C)c3cc2C(C)=CC1(C)C [Dye V12-02144]	492 nm	49,000	484 nm	28,355	3.6	2.8	2.0	1.7	2.7	2.1			0.7	1.5			
CCCN(CCCN(C)C)C1=C/C(=C\c2sc3ccccc3[n+]2C)c2ccccc2N1c1ccccc1 [SYBR Green, reference compound]			494 nm	73,000	10.6	8.3	8.3	10.6	15.0	7.5			0.3	1.0			
C[n+]1c(/C=C2\C=CN(c3ccccc3)c3ccccc32)sc2ccccc21 [Dye V02-06101, reference compound]					0.8	4.1											
CCN(CC)c1ccc2c(/C=C3\Sc4ccccc4N3C)cc(N3CCN(CCO)CC3)[o+]c2c1 [Dye V13-01184]	480 nm	83,000	455 nm	40,321	5.3	6.1	2.0	5.3	6.1	1.4		significant fluorescence enhancement	1.0	1.4			
CCN1C(=Cc2cc(-c3ccccc3)[o+]c3cc(OC)ccc23)Oc2ccccc21 [Dye V02-06135]	464 nm	43,000			None	None											
